The source of these data is PMC6214143, “Oncotoxic Properties of Serotonin Transporter Inhibitors and 5-HT1A Receptor Ligands” (International Journal of Molecular Sciences, 2018).

Where a name gives a salt, the structure may show the parent alone.

In series [1] the target is T1, 5-HT1A receptor (Homo sapiens, UniProt P08908).
T1 construct: EGFP; expressed in transfected cells
T1 sequence (P08908 1-422): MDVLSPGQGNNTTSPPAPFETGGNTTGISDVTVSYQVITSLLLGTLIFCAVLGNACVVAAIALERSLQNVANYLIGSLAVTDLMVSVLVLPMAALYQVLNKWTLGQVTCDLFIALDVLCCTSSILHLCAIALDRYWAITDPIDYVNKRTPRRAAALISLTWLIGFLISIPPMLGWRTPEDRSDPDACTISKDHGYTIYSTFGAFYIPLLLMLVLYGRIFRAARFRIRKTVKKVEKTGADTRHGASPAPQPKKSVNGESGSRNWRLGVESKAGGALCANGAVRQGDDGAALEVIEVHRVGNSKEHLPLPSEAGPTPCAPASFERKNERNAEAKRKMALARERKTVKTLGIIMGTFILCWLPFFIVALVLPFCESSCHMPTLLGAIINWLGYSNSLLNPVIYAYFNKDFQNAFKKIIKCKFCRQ
The series can be described thus: cAMP level (HTRF) in HEK293 cells that overexpress the 5-HT1AR gene. Type of series: cell-based. How it is done:
(§1) The examination of the functional activity read out as cAMP level inhibition and ERK1/2 and Akt1 phosphorylation was performed according to the instructions of the One-plate Cisbio Bioassays cAMP dynamic 2, phospho-ERK (Thr202/Tyr204) and Akt1 phospho- S473 Cellular Assay Kits respectively, using a HEK293 human fibroblast cell line that overexpresses 5-HT1A receptors. […] The cAMP levels in PC-3 cells were determined using 600,000 cells/mL. Receptor activation with the appropriate ligands was carried out for 30 min, and then the cells were lysed. The results were analyzed with GraphPad Prism v 6.0 (GraphPad Software, San Diego, CA, USA) using its in-built functions. Ligand activity was determined using a 4-parameter equation of the dose-response function. […] M.
(§2) All compounds were tested with both agonists and antagonists. To test the response of cAMP to an agonist the cells were activated with forskolin (1 µM) followed by agonist addition. […] Data are an average of minimum three independent experiments in duplicate. The control of specific activity was measured under the same conditions on cells lacking the 5-HT1A receptor. The results were expressed as % of the reference agonist activity. In the antagonist mode 100% of the reference agonist activity (EC80) corresponded to 0% antagonist activity.
In general terms: Cyclic AMP is a second messenger, typically raised through Gs and lowered through Gi signalling.

Series [2] has as its system PC-3 cells. The experiment in a line: MTT cell survival assay, PC-3 cells. Type of series: cell-based, human. The conditions noted are these: for IC50: Homo sapiens, PC-3 cells, MTT, 72 h; for Selectivity Index: IC50 Balb/c 3T3 / IC50 PC-3. How it is done:
(§3) The effects of the test compounds on the survival of PC-3, SH-SY5Y, Balb/c 3T3 and HEK293 cells was measured with the aid of the 3-(4,5-dimethylthiazol-2-yl)-2,5-diphenyltetrazolium bromide (MTT) assay. The cells were cultured in 96-well plates (100 μL/well) for 72 h. The optimized initial densities were the following: for PC-3—60,000 cells/mL, SH-SY5Y and Balb/c 3T3—50,000 cells/mL.
(§4) After 20 h preincubation and evaluation of the uniformity of cell growth, the medium was aspirated, and the respective solutions of the substances were added to the culture medium. Control cells were only treated the solvent used for the compounds and medium alone.
(§5) MTT (3-(4,5-dimethylthiazol-2-yl)-2,5-diphenyltetrazolium bromide) is reduced by intracellular dehydrogenase, which is present only in live cells (mitochondria), to purple, water-insoluble formazan. After it is dissolved, formazan absorbance of the resulting solution is directly proportional to the number of living cells in culture.
(§6) After appropriate incubation, the culture medium was removed. Next, 50 μL of MTT solution (0.5 mg/mL) diluted in PBS to 0.5 mg/mL was added to each well. […] Then, the precipitated formazan was dissolved by the addition of 200 μL isopropanol. […] The plates were sealed to reduce evaporation before incubation. The test was performed in three to five independent experiments with four times the measured concentration tested. The cell survival percentage was determined as % of controls, which were cells treated with the test compound solvent at the highest concentration.
A general note: Tetrazolium dyes change colour on reduction, which living cells bring about.

In series [3] the target is T1, 5-HT1A receptor. The series can be described thus: ERK1/2 phosphorylation (HTRF) in HEK293 cells that overexpress the 5-HT1AR gene. Conditions: for EC50: agonist mode, HEK293-5-HT1A cells, read-out: ERK1/2 EC50. Type of series: cell-based. Here is the method: as §1, §2
For orientation: TR-FRET usually uses a lanthanide donor and a delayed reading to cut background.

In series [4] the test system is Balb/c 3T3 cells. The experiment in a line: MTT cell survival assay, Balb/c 3T3 cells (normal reference). Type of series: cell-based, murine. Conditions: Mus musculus, BALB/c3T3, 72 h. Here is the method:
as §3, §4, §5
After appropriate incubation, the culture medium was removed. Next, 50 μL of MTT solution (0.5 mg/mL) diluted in PBS to 0.5 mg/mL was added to each well. The plates were incubated for 3 h at 37 °C. Then, the precipitated formazan was dissolved by the addition of 200 μL isopropanol. After a 24-hour incubation at 4 °C in the dark, the absorbance of the dissolved formazan was measured at 570 nm (the maximum absorption of formazan) and at 690 nm (reference wavelength) using a Power Wave XS microplate spectrophotometer (Bio-Tek, Winooski, VT, USA). The plates were sealed to reduce evaporation before incubation. The test was performed in three to five independent experiments with four times the measured concentration tested. The cell survival percentage was determined as % of controls, which were cells treated with the test compound solvent at the highest concentration.

In series [5] the target is T2, serotonin transporter (SERT) (Rattus norvegicus, UniProt P31652).
T2 construct: Rat cerebral cortex was homogenized in 30 volumes of ice-cold 50 mM Tris-HCl; from tissue; host or cells: rat cerebral cortex (membrane pellet)
The experiment in a line: In vitro binding affinity for serotonin transporter ([3H]-citalopram displacement). The conditions noted are these: rat cerebral cortex, read-out: SERT Ki ± SEM. Here is the method:
The experiments were performed according to the method described by Owens et al. Rat cerebral cortex was homogenized in 30 volumes of ice-cold 50 mM Tris-HCl containing 150 mM NaCl and 5 mM KCl, pH 7.7 at 25 °C and centrifuged at 20,000 × g for 20 min. The supernatant was decanted, and the pellet was resuspended in 30 volumes of buffer and centrifuged three times. The final pellet was suspended in Tris-HCl buffer at a proportion of approximately 5 mg wet weight/mL. An increasing concentration of the analyzed compounds (30 μL) was added to the incubation mixture containing 240 μL of tissue suspension and 30 μL of 1 nM [^3H]-citalopram (used for labeling 5-HT-transporter). Non-specific binding was determined in the presence 30 μL of 1 μM imipramine (displacer). Duplicate samples were incubated at room temperature for 1 h. The incubation was terminated by rapid filtration over fiberglass filters FilterMate B (Perkin Elmer, Waltham, MA, USA) using a 96-well FilterMate harvester (PerkinElmer, Waltham, MA, USA). The radioactivity of the filters was measured with a MicroBeta TriLux 1450 scintillation counter. Ki values were calculated from the Cheng–Prusoff equation [31]: (1) Ki=IC50/1+Lo/KD where Lo is the labeled ligand concentration, and KD is the dissociation constant of the labeled ligand.

In series [6] the test system is SH-SY5Y cells. The series can be described thus: MTT cell survival assay, SH-SY5Y cells. In kind it is cell-based, human. Conditions: for IC50: Homo sapiens, SH-SY5Y cells, MTT, 72 h; for Selectivity Index: IC50 Balb/c 3T3 / IC50 SH-SY5Y. Here is the method: as §3, §4, §5, §6
For series [7], the system named is PC-3 prostate cancer cells. The experiment in a line: Apoptosis determination (FITC Annexin V, flow cytometry) in PC-3 cells. Conditions: 72 h, sum of early and late apoptosis. Type of series: cell-based, human. Here is the method: Apoptosis was measured using the FITC Annexin V Apoptosis Detection Kit I (BD Biosciences, San Jose, CA, USA). Cells, after incubations 72 h with tested agents, were centrifuged, rinsed twice with cold phosphate-buffered saline (PBS) and suspended in binding buffer at 1 × 10^6 cells/mL. Then, 100-μL volumes of the cell suspensions were labeled according to the manufacturer’s instructions. Flow cytometry analysis was performed within 1 h after labeling. Flow cytometry analyses was run on a FACSCanto II flow cytometer (BD Biosciences, San Jose CA, USA) and analyzed using BD FACSDiva software.

On the set-up of series [8]: method as in PMID 23574807. Conditions: Porsolt forced swim test; cited from earlier work.

Broadly, the IC50 is the concentration that gives 50% inhibition. Usually melting point stands for the temperature, or range, at which the solid turns liquid. For orientation: Ki means the equilibrium dissociation constant of an inhibitor or competing ligand from its target.

T2 sequence (P31652 whole entry): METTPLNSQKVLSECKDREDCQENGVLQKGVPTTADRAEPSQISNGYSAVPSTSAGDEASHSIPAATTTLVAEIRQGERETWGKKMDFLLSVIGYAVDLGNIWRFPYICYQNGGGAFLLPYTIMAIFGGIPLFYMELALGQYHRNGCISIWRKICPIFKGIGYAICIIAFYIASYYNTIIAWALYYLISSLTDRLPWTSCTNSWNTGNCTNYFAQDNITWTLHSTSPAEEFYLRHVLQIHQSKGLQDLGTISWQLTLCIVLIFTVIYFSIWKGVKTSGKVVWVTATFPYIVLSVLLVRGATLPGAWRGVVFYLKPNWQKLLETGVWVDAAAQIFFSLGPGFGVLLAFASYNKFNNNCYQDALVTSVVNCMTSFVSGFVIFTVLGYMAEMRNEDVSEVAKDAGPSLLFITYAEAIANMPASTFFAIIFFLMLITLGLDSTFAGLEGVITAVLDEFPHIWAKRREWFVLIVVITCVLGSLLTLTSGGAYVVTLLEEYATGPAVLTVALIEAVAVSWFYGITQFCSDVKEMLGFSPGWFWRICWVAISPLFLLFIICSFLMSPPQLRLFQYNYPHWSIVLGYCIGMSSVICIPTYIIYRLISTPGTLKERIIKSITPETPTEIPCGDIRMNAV

Compound `Cl.O=[N+]([O-])c1ccc2nc(N3CCN(CC4CCCCC4)CC3)ccc2c1` [AB21, 2-[4-(cyclohexylmethyl)piperazin-1-yl]-6-nitroquinoline hydrochloride] showed a melting point of 107 to 108 °C. Further, the IC50 in series [1] was 0.002 µM. In series [2], inhibition was half-maximal at 18 ± 1.88 µM (IC50) and the “Selectivity Index” value came to 1.14. The IC50 in series [3] was 0.78 µM. In [4], this compound came in with an IC50 of 20.5 ± 3.5 µM. For the same compound, the Ki in series [5] stood at 0.0149 ± 0.0016 µM. In [6], the IC50 was found to be 21.6 ± 1.07 µM and the “Selectivity Index” value was determined as 0.95.

On to `Cl.O=[N+]([O-])c1ccc2nc(N3CCN(Cc4ccc(F)cc4)CC3)ccc2c1` [AB5A, 2-[4-(4-fluorobenzyl)piperazin-1-yl]-6-nitroquinoline hydrochloride], for which the IC50 in [1] was 96.9 µM; in series [2] it was 27.2 ± 3.2 µM; in series [3], 17.9 µM; in [4] it was 38.9 ± 4.08 µM; in [6], 18.1 ± 1.68 µM. Also, the figures for the “Selectivity Index” value in series [2] and in series [6] were 1.43 and 2.15, respectively. The Ki in series [5] stood at 0.0074 ± 0.0024 µM.

For `CC(=O)N1CCC(c2ccc(F)cc2)C(COc2ccc3c(c2)OCO3)C1` (stereo not drawn) [N-Ac-Paroxetine, reference compound], the IC50 in [1] amounted to 1 µM; in series [2], 45.3 ± 1.44 µM; in series [4], 66.2 ± 2.35 µM; in [6], 65.6 ± 1.01 µM. In addition, the “Selectivity Index” value is 1.46 in series [2] and 1.01 in [6]. Besides, in [3], the EC50 is 4.23 µM.

`COCCCC/C(=N\OCCN)c1ccc(C(F)(F)F)cc1` [Fluvoxamine, fluvoxamine, reference compound]: the half-maximal inhibitory concentration (IC50) in [2] is 47.8 ± 2.85 µM; in series [4] it was 52 ± 5.4 µM; in series [6], 89.4 ± 3.64 µM.

For the compound `Fc1ccc([C@@H]2CCNC[C@H]2COc2ccc3c(c2)OCO3)cc1` [Paroxetine, paroxetine, reference compound], the IC50 in [1] is 0.0511 µM; in series [2] it was 12.1 ± 0.37 µM; in series [4] it was 14.9 ± 0.24 µM; in series [6] it was 18.1 ± 0.48 µM. Further, the “Selectivity Index” value in series [2] turned out to be 1.23; in series [6], 0.82. Also, the EC50 in series [3] was determined as 0.15 µM.

`COc1ccccc1N1CCN(CCN(C(=O)C2CCCCC2)c2ccccn2)CC1` [WAY100635, N-[2-[4-(2-Methoxyphenyl)-1-piperazinyl]ethyl]-N-2-pyridinylcyclohexanecarboxamide maleate, reference compound]: the values for the IC50 in [2], in [4] and in [6] were 43.3 ± 4.05 µM, 88 ± 13.5 µM and 74.3 ± 11.8 µM, respectively.

Regarding `CNCCC(Oc1ccc(C(F)(F)F)cc1)c1ccccc1` (stereo not drawn) [Fluoxetine, fluoxetine, reference compound], the apoptosis in series [7] (25 μM) amounted to 21%; in [7] (50 μM) it was 60%; in [7] (75 μM) it was 80%.

With `CCCCCCCCN1CCN(c2ccc3cc([N+](=O)[O-])ccc3n2)CC1.Cl` [KW117, 6-nitro-2-(4-octylpiperazin-1-yl)quinoline hydrochloride], the IC50 in series [2] was 14.4 ± 1.7 µM; in [3], 7.18 µM; in series [4], 38.1 ± 6.54 µM; in series [6], 25.4 ± 2.66 µM. The “Selectivity Index” value in series [2] (listed as KW117 (6)) worked out at 2.65; in [6], 1.50. Further, the antidepressant activity result in series [8] is “moderate antidepressant activity”.

Take `CCCCCCCCCCCN1CCN(c2ccc3cc([N+](=O)[O-])ccc3n2)CC1.Cl` [AZ07, 6-nitro-2-(4-undecylpiperazin-1-yl)quinoline hydrochloride]: the IC50 in series [1] was 0.73 µM; in series [2], 5.74 ± 1.02 µM; in series [3] it was 0.9 µM; in series [4] it was 11.5 ± 0.62 µM; in series [6] it was 9.15 ± 0.74 µM. The “Selectivity Index” value turned out to be 2.00 in series [2] and 1.26 in series [6]. In addition, the apoptosis is listed as 20% in series [7] (25 μM), 35% in series [7] (50 μM) and 44% in series [7] (75 μM). Besides, the antidepressant activity result in [8] is “moderate antidepressant activity”.

With `COCCCC/C(=N\OCCNC(C)=O)c1ccc(C(F)(F)F)cc1` [N-Ac-Fluvoxamine, reference compound], the 50% inhibitory concentration (IC50) in series [1] amounted to 20.1 µM; in [2] it was 92.2 ± 9.65 µM; in series [3], 11.2 µM; in [4], 136 ± 3.95 µM; in series [6], 112 ± 3.85 µM. Moreover, the “Selectivity Index” value in series [6] is reported as 1.21.

In the case of `CCCCCCCCCN1CCN(c2ccc3cc([N+](=O)[O-])ccc3n2)CC1` [AZ05, 6-nitro-2-(4-nonylpiperazin-1-yl)quinolone hydrochloride], the IC50 in series [1] was 9.7 µM; in series [2], 9.85 ± 0.79 µM; in series [3], 1.28 µM; in series [4] it was 24.4 ± 1.49 µM; in series [6] it was 17.3 ± 1.85 µM. Also, the “Selectivity Index” value is recorded as 2.48 in [2] and 1.41 in [6]. Besides, in [8], the antidepressant activity entry was “moderate antidepressant activity”.
